Assay: recombinant UMI read abundance after kanamycin selection (control-corrected) (log10(CPM+1)); higher = more efficient recombination; extreme values may be limits of the assay; sequences stand for … in AGTGCAGAGAAAATCGGCCAGTTTTCTCTGCCTGCAGTCCGCATGCCGTGGGACCCCTTGGGTTCTAACCTGTTGCCTAGATTTATGCAGCGGACTGCCTTTCTCCCAAAGTGATAAACCGG…AGGTTGGTTTCACT; site = the 11-nt donor
How it was run: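 The measure is log10(CPM+1) for recombinant UMIs. These were PCR-amplified across the donor–target junction and sequenced after Escherichia coli carrying a donor and donor-binding-loop pair library and a target plasmid with T7-inducible IS621 bridge recombinase was plated on IPTG (0.07 mM) plus kanamycin or unselected. CPM were averaged over two replicates and scaled by control-derived factors.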
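Further: IS621 bridge recombinase in Escherichia coli cells against a fixed T5 target plasmid.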

Q: Which “recombinant UMI read abundance (log10)” value does the source give for “AGGACGACATGGACCGGTTTTCCCGGTAATCCGTATTTGAC (site AGGACTACTGT)” here?
A: 0

Q: For “CCCATATCATGGACCGGTTTTCCCGGTAATCCGTATTTGGC (site CCCATATCTGA)”, which “recombinant UMI read abundance (log10)” value is on record?
A: 0

Q: With “CGAGCGACATGGACCGGTTTTCCCGGTAATCCGTATTTGTA (site CGAGCGACTTA)” as the sequence, how does the “recombinant UMI read abundance (log10)” value read?
A: 2.3

Q: With “TATTCCCCATGGACCGGTTTTCCCGGTAATCCGTATTTGTA (site TATTCCCCTTA)” as the sequence, how does the “recombinant UMI read abundance (log10)” value read?
A: 0.0102

Q: With “GCCACGCCATGGACCGGTTTTCCCGGTAATCCGTATTTGTA (site GCCTCGCCTTA)” as the sequence, how does the “recombinant UMI read abundance (log10)” value read?
A: 0.183

Q: With “AACCATCCATGGACCGGTTTTCCCGGTAATCCGTATTTGAT (site AACCATCCTAT)” as the sequence, how does the “recombinant UMI read abundance (log10)” value read?
A: 0.499

Q: With “GAATCATCATGGACCGGTTTTCCCGGTAATCCGTATTTGCT (site CGATCATCTAG)” as the sequence, how does the “recombinant UMI read abundance (log10)” value read?
A: 1.88

Q: Which “recombinant UMI read abundance (log10)” value does the source give for “GTAGGTTCATGGACCGGTTTTCCCGGTAATCCGTATTTGAC (site GTAGGTCCTGT)” here?
A: 1.78

Q: Which “recombinant UMI read abundance (log10)” value does the source give for “GTATGCACATGGACCGGTTTTCCCGGTAATCCGTATTTGCA (site GTATGCACTTA)” here?
A: 0.546

Q: Which “recombinant UMI read abundance (log10)” value does the source give for “CCTGAGACATGGACCGGTTTTCCCGGTAATCCGTATTTGAG (site CCTGAGACTCT)” here?
A: 0.00693

Q: With “TCATATACATGGACCGGTTTTCCCGGTAATCCGTATTTGCA (site TCATATACTTG)” as the sequence, how does the “recombinant UMI read abundance (log10)” value read?
A: 0.743

Q: Which “recombinant UMI read abundance (log10)” value does the source give for “GTTAGAACATGGACCGGTTTTCCCGGTAATCCGTATTTGAC (site GTTAGAACTGT)” here?
A: 1.89

Q: For “CTAGTCACATGGACCGGTTTTCCCGGTAATCCGTATTTGGG (site CGAGTCACTCC)”, which “recombinant UMI read abundance (log10)” value is on record?
A: 0.00732

Q: For “GATTAACCATGGACCGGTTTTCCCGGTAATCCGTATTTGCT (site GATTAACCTAG)”, which “recombinant UMI read abundance (log10)” value is on record?
A: 0

Q: With “CCCCACGCATGGACCGGTTTTCCCGGTAATCCGTATTTGTA (site CCCCACCCTTA)” as the sequence, how does the “recombinant UMI read abundance (log10)” value read?
A: 0.00405

Q: With “AATCGGACATGGACCGGTTTTCCCGGTAATCCGTATTTGAT (site AATCGGACTAT)” as the sequence, how does the “recombinant UMI read abundance (log10)” value read?
A: 1.01

Q: With “GGCAACCCATGGACCGGTTTTCCCGGTAATCCGTATTTGAA (site GGCAAGCCTTT)” as the sequence, how does the “recombinant UMI read abundance (log10)” value read?
A: 0

Q: With “GTTGAGCCATGGACCGGTTTTCCCGGTAATCCGTATTTGTG (site GTTGAGCCTCA)” as the sequence, how does the “recombinant UMI read abundance (log10)” value read?
A: 0.033

Q: With “GATTGGCCATGGACCGGTTTTCCCGGTAATCCGTATTTGAC (site GATTGGCCTGT)” as the sequence, how does the “recombinant UMI read abundance (log10)” value read?
A: 0

Q: Which “recombinant UMI read abundance (log10)” value does the source give for “TACTTGACATGGACCGGTTTTCCCGGTAATCCGTATTTGCC (site TACTTGACTGG)” here?
A: 0

Q: Which “recombinant UMI read abundance (log10)” value does the source give for “GGCCAGCCATGGACCGGTTTTCCCGGTAATCCGTATTTGTT (site GGCCAACCTAA)” here?
A: 0.00333

Q: With “CTAGTACCATGGACCGGTTTTCCCGGTAATCCGTATTTGAC (site CTAGTAACTGT)” as the sequence, how does the “recombinant UMI read abundance (log10)” value read?
A: 0

Q: Which “recombinant UMI read abundance (log10)” value does the source give for “CAACTTCCATGGACCGGTTTTCCCGGTAATCCGTATTTGTT (site CAACTTCCTAA)” here?
A: 1.5

Q: For “GGGGCACCATGGACCGGTTTTCCCGGTAATCCGTATTTGCA (site GGAGCACCTTG)”, which “recombinant UMI read abundance (log10)” value is on record?
A: 0

Q: With “CCTATTTCATGGACCGGTTTTCCCGGTAATCCGTATTTGTC (site CCTATTTCTGA)” as the sequence, how does the “recombinant UMI read abundance (log10)” value read?
A: 0

Q: For “GCCCAGCCATGGACCGGTTTTCCCGGTAATCCGTATTTGGT (site GCCCAGCCTAC)”, which “recombinant UMI read abundance (log10)” value is on record?
A: 0.0164

Q: With “GTATGTCCATGGACCGGTTTTCCCGGTAATCCGTATTTGAG (site GTATGTCCTCT)” as the sequence, how does the “recombinant UMI read abundance (log10)” value read?
A: 0.428

Q: For “CCCGAGCCATGGACCGGTTTTCCCGGTAATCCGTATTTGCC (site CCCTAGCCTGG)”, which “recombinant UMI read abundance (log10)” value is on record?
A: 0

Q: Which “recombinant UMI read abundance (log10)” value does the source give for “TCAACCGCATGGACCGGTTTTCCCGGTAATCCGTATTTGCG (site TCAACCGCTCG)” here?
A: 0

Q: For “GGGCATACATGGACCGGTTTTCCCGGTAATCCGTATTTGAC (site GGGCATACTGT)”, which “recombinant UMI read abundance (log10)” value is on record?
A: 1.8

Q: Which “recombinant UMI read abundance (log10)” value does the source give for “TTAGCTGCATGGACCGGTTTTCCCGGTAATCCGTATTTGTA (site TTAGCTGCTAA)” here?
A: 0.0184

Q: For “CGCCACACATGGACCGGTTTTCCCGGTAATCCGTATTTGTA (site CTCCACACTTA)”, which “recombinant UMI read abundance (log10)” value is on record?
A: 0.241

Reference: the supplement of paper PMC11208160
